pIC50: −log10 of the molar value.
Tests used:
[1] = Selectivity index, ratio of CCID50 for human PBMC to IC50 for HIV-1 HTLV-3B; type: functional
[2] = test system: Human immunodeficiency virus 1; test: Antiviral activity against HIV-1 HTLV-3B infected in human PBMC cells assessed as inhibition of viral production by p24 antigen production/ELISA; type: functional, organism-based; conditions: Human immunodeficiency virus 1, HTLV-3B
[3] = Cytotoxicity against human PBMC assessed as inhibition of cell growth by trypan blue staining; type: cell-based; conditions: read-out: CCID50
[4] = test system: Human immunodeficiency virus 1; test: Antiviral activity against wild type HIV-1 isolate infected in human PBMC cells assessed as inhibition of viral production by p24 antigen production/ELISA; type: functional, organism-based; conditions: Human immunodeficiency virus 1, PBMC
[5] = test system: Human immunodeficiency virus 1; test: Fold resistance, ratio of IC50 for NRTI-resistant HIV-1 D67N, T69D, K70R, A98G, V118I, M184V, T215F and K219Q mutant to wild type HIV-1 isolate infected in human PBMC cells; type: functional
[6] = Half life in rat; type: ADME, organism-based; conditions: in vivo

| pIC50 [2] | SMILES | Selectivity Index [1] | CC50 [3] [µM] | pIC50 [4] | Ratio IC50 [5] | half-life [6] [h] |
| --- | --- | --- | --- | --- | --- | --- |
| 4.00 | CCCCOC(=O)OC[C@@H]1CC[C@H](n2cnc3c(=O)nc[nH]c32)O1 | 2.9 | 290 | – | – | – |
| – | Cc1cn([C@H]2C[C@H](N=[N+]=[N-])[C@@H](CO)O2)c(=O)[nH]c1=O [ZIDOVUDINE] | – | – | 6.67 | 4000 | – |
| 3.31 | CCOC(=O)OC[C@@H]1CC[C@H](n2cnc3c(=O)nc[nH]c32)O1 | 1.2 | 570 | – | – | – |
| 4.40 | CCCCCCOC(=O)OC[C@@H]1CC[C@H](n2cnc3c(=O)nc[nH]c32)O1 | 5.2 | 220 | – | – | – |
| 3.52 | CCCCCCCOC(=O)OC[C@@H]1CC[C@H](n2cnc3c(=O)nc[nH]c32)O1 | 1.7 | 520 | – | – | – |

| SMILES | pIC50 [2] | Selectivity Index [1] | CC50 [3] [µM] | pIC50 [4] | Ratio IC50 [5] | half-life [6] [h] |
| --- | --- | --- | --- | --- | --- | --- |
| O=c1[nH]cnc2c1ncn2[C@H]1CC[C@@H](CO)O1 [DIDANOSINE] | 4.40 | 2.3 | 100 | 5.47 | 900 | 1 |
| CCCCCOC(=O)OC[C@@H]1CC[C@H](n2cnc3c(=O)nc[nH]c32)O1 | 4.52 | 200 | 7000 | 5.19 | 600 | – |

Reference: ChEMBL document CHEMBL3132835, “Biological evaluation and molecular modelling of didanosine derivatives” (Medchemcomm, 2014)
